According to patent US20030036567A1, “PROPYLENE GLYCOL AS AN AGENT TO STIMUATE THROMBOPOIESIS” (priority 2001, published 2003):
Like-named read-outs stand apart in the source and are kept apart here.

Columns and labels:
Murine bone marrow cells = assay: Long term culture initiating cell assay (LTCIC); type: cell-based, C57bl mice; conditions: 500 ng/ml, Figure 2
Method: Example 4. Murine bone marrow was obtained from the femurs of adult C57bl mice, suspended in Myelocult (Stem Cell Technologies, Vancouver Canada), and cells were isolated by centrifugation at 500g for 10 minutes at 4 °C. Viability was determined by Trypan blue exclusion and aliquots were taken for plating efficiency in methylcellulose culture (MethoCult, Stem Cell Technologies). The remaining cell suspension was plated at a density of 6.25 x10^4/well into 24 well plates containing irradiated FBMD-1 feeder layers. To appropriate wells, propylene glycol was added to final concentration of 500 ng/ml. At weekly interval the cells were demidepopulated and fed with 250μl fresh medium. The harvested cells were washed with PBS and added to a 2.5 ml tube of MethoCult. Two 35mm petri dishes containing 1 ml each were plated from each tube. After 10 days incubation at 37 °C, 5% CO2, the dishes were scored for colonies.

[1] = accidental intoxication, cited from earlier work
[2] = Case report Patient 2, ingestion of antifreeze containing 30% propylene glycol; type: in vivo, human
Method: Example 2. A person ingested an unknown amount of the antifreeze Freeze Proof containing 30% propylene glycol earlier. Following ingestion, the child acted normally and ate well until approximately 6 hours later when they developed slurred speech, right facial drooping, an abnormal, wobbling gait, and was noted walking into walls and unable sit up by […]. They were the brought to the emergency room approximately 12 hours after ingestion with the above symptoms. At that time a toxicological screen was obtained which was qualitatively positive for propylene glycol. They were then transferred to University Medical Center where their blood pressure was 106/70, pulse was 113, respiration was 18, temperature was 36.3 C. At that time they had slurred speech, good facial symmetry, intact cranial nerve examination, but an unsteady gait, and was drowsy and lethargic but arousable. Their pupils were equal and reactive to light. […] The child was given a charcoal and sorbitol lavage through an oral naso-gastric tube as well as IV fluid therapy with normal saline. Within 4 hours of admission, the child was able to walk and talk well without evidence of slurred speech. The following morning the child was discharged from the hospital with no evidence of the symptoms originally observed.

[3] = human, in vivo
Text: Example 1. Patient 1 was a person with a history of congenital aqueductal stenosis diagnosed and treated with a Torkildson shunt. Nineteen months prior to admission, they sustained a minor head injury in a motor vehicle accident resulting in a shunt malfunction with recurrent headaches, necessitating treatment with a ventriculoperitoneal shunt. Consequent subdural hygromas became infected, leaving the patient with marked cognitive and motor impairments. They were transferred to a rehabilitation facility six months prior to admission to our hospital. […] All biochemical and hematologic abnormalities resolved within 36 hours. The patient remained well until four weeks prior to admission when they again developed fever (106), tachycardia (169 bpm), and tachypnea. Similar biochemical and hematological abnormalities were noted including a white blood cell count of 25,000 (per mm^3) and a thrombocyte count of 469,000 (per mm^3). Cultures of blood, urine, and CSF were negative. Within 36 hours the patient returned to baseline. Similar episodes were noted to occur at roughly seven day intervals. CT scans of chest, abdomen and pelvis, and a gallium scan were unremarkable. After the fourth recorded episode, the patient was transferred to our neurological unit for evaluation of an occult ventriculoperitoneal shunt infection or possible hypothalamic dysregulation.
On transfer, the patient was noted to have BP 120/80, HR 88 bpm and T 37.5. The general physical examination was notable only for generalized pallor and contractures of the lower extremities. They were awake but only able to follow single midline one-step commands. […] The patient was treated with kayexalate. The anion gap acidosis resolved within twelve hours. At that time, the patient was noted to develop oliguric renal insufficiency with a BUN of 41 (mg/dl) and creatinine of 2.2 (mg/dl). […] An unusual "green stool" which caked the patient's rectum was collected. Samples of the patient's blood, urine, and stool (collected 17 hours after the recorded onset of symptoms) were sent for toxicologic analysis. […]
In addition, prominent throughout the aspirate were eosinophils, mast cells as well as eo-basophils. Megakaryocytes were abundant.

[4] = tested on: CD34+CD38- hematopoietic stem cells; assay: Colony formation from CD34+CD38- hematopoietic stem cells in semi-solid culture; type: cell-based, human; conditions: 500 cells per ml, 14 days, Figure 1
Method: Example 3. CD34+CD38- cells isolated from human bone marrow (Poietic Technologies) were counted using a hemocytometer and plated in semi-solid culture media (MethoCult GF+H4435, StemCell Technologies, Vancouver, British Columbia) containing methylcellulose, fetal bovine serum, BSA, recombinant human (rh) SCF, rh GM-CSF, rh G-CSF, rh IL-3, rh IL-6, rh erythropoietin, and L-glutamine to which were added varying concentrations of propylene glycol (FW=76.1 Density=1.04g/ml Fisher Scientific). The cells were plated at a density of 500 cells per 1 ml per 35 mm petri dish. After incubation at 37 °C, 5% CO2 for 14 days, the dishes were scored for colony formation.

[5] = diet containing 6 or 12% propylene glycol; cited from earlier work
[6] = single oral dose; cited from earlier work
[7] = tested on: human proximal tubule (HPT) cells; conditions: normally proliferating cultured HPT cells; cited from earlier work
[8] = occupational exposure; cited from earlier work

Row | Compound | increase of total cell number on the cultures over cells not exposed (Murine bone marrow cells) [%] | WBC ([1]; chart review) | anion gap [1] | biochemical or hematological outcome [2] | BUN [3] [mg/dL] | LDH [3] [U/liter] | SGOT [3] [U/liter] | anion gap [3] | bicarbonate [3] [mmol/L] | bone marrow studies [3] | creatinine [3] [mg/dL] | creatinine kinase [3] [U/liter] | hematologic response to acute exposure [3] | potassium [3] [mmol/L] | effect on CFU formed from CD34+ cells [4] | erythrocyte effects [5] | spleen weight [6] | concentration with toxic effects [7] [µM] | bone marrow findings [8]
1 | CC(O)CO (stereo not shown) [propylene glycol, 1,2-propanediol] | 50 | 25,000 per mm^3 | 28 | no biochemical or hematological abnormalities | 41 | 528 | 151 | 24 | 16 | relatively hypercellular marrow with increased myeloid precursors and megakaryocytes | 2.2 | 8400 | dramatic leukocytosis and thrombocytosis | 5.8 | increased CFU formed from CD34+ cells | accelerated erythropoiesis and reduction in red blood cell life span | significant increase in spleen weight | 50000 | 
2 | COC(C)COC(C)CO (stereo not shown) [dipropylene glycol monomethyl ether] |  |  |  |  |  |  |  |  |  |  |  |  |  |  |  |  |  |  | generally hypocellular marrow with decreased myeloid to erythroid ratios and an abundance of stored iron
